# Measured values taken from patent publication US9669242B2, “Compositions containing at least two phenolic compounds, a lipid-soluble antioxidant and at least one hydrotrope for cosmetic use” (L'OREAL, priority 2013, dated 2017).
# Where two headings read alike, the source gives them in different places.
# Assays:
# [1] = Solubility of phenolic compounds and caffeine in water without hydrotropes; conditions: for solubility: in water
# Text: Baicalin, a component of Chinese medicinal herb Huang-chin, is a flavone, a type of flavonoid.
# [2] = Oxygen Radical Absorbance Capacity (ORAC) assay; type: biochemical; conditions: individual values, known activity of each antioxidant
# Text: The ORAC assay measures the oxidative degradation of the fluorescent probe (fluorescein) after being mixed with free radical generators such as azo-initiator compounds (2,2′-Azobis(2-amidinopropane)dihydrochloride, AAPH). Azo-initiators are considered to produce the peroxyl radical by heating, which damages the fluorescent molecule, resulting in the loss of fluorescence. Antioxidants are considered to protect the fluorescent molecule from the oxidative degeneration. By quantifying the decay of fluorescence using a fluorometer, the degree of protection is determined comparing with a standard control antioxidant Trolox. The result is expressed in μmol equivalent of Trolox per gram of sample (i.e., μmolTE/g).
# To test samples by using ORAC, compounds are dissolved into water-based NaH2PO4 buffer.
# [3] = Solubility of baicalin in organic solvent PEG-4; type: physicochemical
# Text: Crystallization or precipitation occurs after mixing the glycol phase and water phase.
# [4] = HORAC assay (hydroxyl radical averting capacity); type: biochemical; conditions: individual values, known activity of each antioxidant
# Text: The Varioskan Flash is employed for the quantification of the capacity of an antioxidant to avert the hydroxyl radical. The hydroxyl radical, generated from hydrogen peroxide and Cobalt (II) fluoride, will quench a fluorescent probe by a hydrogen atom transfer reaction. In the presence of an antioxidant, however, the molecule will chelate the Co(II), preventing the generation of the hydroxyl radical and initially block or prevent the quenching of the probe, causing a delay in the fluorescence decay profile. The area under the fluorescence decay curves for samples with and without the presence of an antioxidant molecule are compared to that of a standard reference material and the hydroxyl radical averting capacity is determined
# By quantifying the decay of fluorescence using a fluorometer, the degree of protection is determined by comparison with a standard control antioxidant Gallic Acid (standard reference material). The result is expressed in μmol equivalent of Gallic Acid per gram of sample (i.e., μmolGAE/g).
# To test samples by using HORAC, compounds are dissolved into water-based NaH2PO4 buffer.
# [5] = pH stability of baicalin in water; type: physicochemical
# [6] = Solubility in water with hydrotropes (nicotinamide, caffeine); conditions: 5% nicotinamide and 5% caffeine
compound,measurement,setting,value
Oc1ccc(C=Cc2cc(O)cc(O)c2)cc1 [Resveratrol],Solubility in water without hydrotropes,[1],<0.005 % (w/w)
COc1ccc([C@@H]2CC(=O)c3c(O)cc(O[C@@H]4O[C@H](CO)[C@@H](O)[C@H](O)[C@H]4O[C@@H]4O[C@@H](C)[C@H](O)[C@@H](O)[C@H]4O)cc3O2)cc1O [Neohesperidin],Solubility in water without hydrotropes,[1],<0.05 % (w/w)
tocopherol [VIT. E (tocopherol)],ORAC,[2],1000 μmolTE/g
O=C(O)[C@H]1O[C@@H](Oc2cc3oc(-c4ccccc4)cc(=O)c3c(O)c2O)[C@H](O)[C@@H](O)[C@@H]1O [Baicalin],solubility in water,[1]; at its natural pH ~4.5,< 0.01%
same,solubility,[1]; pH 3,0.0016%
same,solubility,[1]; pH 3.5,0.0021%
same,solubility,[1]; pH 4,0.0040%
same,solubility,[1]; pH 4.5,0.0084%
same,solubility,[1]; pH 5,0.035%
same,water solubility,[1]; no hydrotrope,< 0.01%
same,Solubility in water without hydrotropes,[1]; without hydrotropes,<0.01 % (w/w)
same,baicalin dissolved by PEG-4,[3],3%
same,ORAC,[2],4759 μmolTE/g
same,HORAC,[4],2592 μmolGAE/g
same,pH at which degradation happens,[5],> 5
O=c1oc2c(O)c(O)cc3c(=O)oc4c(O)c(O)cc1c4c23 [Ellagic acid],Solubility in water without hydrotropes,[1],<0.001 % (w/w)
O=C1c2c(O)cc(O)cc2O[C@H](c2ccc(O)c(O)c2)[C@H]1O [Taxifolin],Solubility in water without hydrotropes,[1]; without hydrotropes,<0.1 % (w/w)
same,Solubility in water with hydrotropes,[6],>1 % (w/w)
